This note sets out measurements from paper PMC12040169 (PLOS Biology, 2025).

The first data set is described as follows: in vitro. Particulars: human, hela cells, % viability.
Take `[N-]=[N+]=NC1C2OCC(O2)C(OCc2ccccc2)C1O` (stereo not shown) [CBK261000]: the viability (usually a read-out of living cells in per cent, often relative to untreated cells) at 28.5 h, 10 µM amounted to 90.1%.

Consider `CC(=O)NS(=O)(=O)c1ccc(NC(=O)CCSc2ccc(C)cc2)cc1` [CBK296141], for which the viability at 28.5 h, 10 µM is 88.5%.

As for `O=Cc1cn(CCC(=O)O)nc1-c1cc2ccccc2o1` [CBK265376], the viability at 28.5 h, 10 µM amounted to 90%.

With `Cc1cccc(C)c1NC(=O)Cn1nnc(-c2ccc(CN3CCC(C)CC3)cc2)n1` [CBK121194], the viability at 28.5 h, 10 µM worked out at 87.2%.

For `CN(C)CCN(Cc1nc2ccccc2[nH]1)Cc1cccs1` [CBK283020], the viability at 28.5 h, 10 µM stood at 85.1%.

For the molecule `Clc1ccc(OCCOc2nccnc2N2CCNCC2)cn1` [CBK014049G], the viability at 28.5 h, 10 µM is 92.5%.

Consider `c1ccc(Cc2csc(C3CN4CCCC4CO3)n2)cc1` (stereo not shown) [CBK304202], for which the viability at 28.5 h, 10 µM is 90.2%.

Take `CCOc1ccc(-c2nc(CC(=O)O)cs2)cc1` [CBK295300]: the viability at 28.5 h, 10 µM was found to be 87.7%.

Consider `O=c1cc(O)c2c(=O)[nH]c(=O)n(-c3ccccc3)c2[nH]1` [CBK287907], for which the viability at 28.5 h, 10 µM stood at 88.2%.

Regarding `Nc1ccc(-c2cn3ccnc3c(NCc3ccccc3)n2)cc1` [CBK066592], the viability at 28.5 h, 10 µM is 108%.

As for `Cc1cc(OC(C)C(=O)N(Cc2cccs2)C2CCS(=O)(=O)C2)cc(C)c1Cl` (stereo not shown) [CBK293962], the viability at 28.5 h, 10 µM came out at 84.3%.

In the case of `CCCS(=O)(=O)NC1CC(C)(C)Cc2c1cnn2-c1ccccc1` (stereo not shown) [CBK307265], the viability at 28.5 h, 10 µM was found to be 98.1%.

Consider `COC(=O)CC1C(=O)NCCN1C(=S)NC(=O)c1ccc(-c2ccccc2)cc1` (stereo not shown) [CBK268711], for which the viability at 28.5 h, 10 µM turned out to be 105%.

Take `O=S(=O)(c1cccc2nonc12)N1CCCCCC1` [CBK265627]: the viability at 28.5 h, 10 µM came out at 102%.

For the molecule `CCOC(=O)c1[nH]c2ccccc2c1NC(=O)[C@@H]1CCCN1C` [CBK160171T], the viability at 28.5 h, 10 µM came to 84.9%.

In the case of `CN(C)[C@@H]1CN(Cc2cccnc2)C[C@H]1c1cn(C)c2ccccc12` [CBK284875], the viability at 28.5 h, 10 µM stood at 110%.

As for `COc1ncc(-c2cccc(NCC(c3cccnc3)N(C)C)n2)c(OC)n1` (stereo not shown) [CBK037723], the viability at 28.5 h, 10 µM is 104%.

With `Cc1ccccc1OCC(=O)N1CC(=O)Nc2ccccc21` [CBK300535], the viability at 28.5 h, 10 µM came to 94%.

`Cc1cnc2c(Cl)c(C(=O)N3CCN(C)C4(CCNCC4)C3)nn2c1` [CBK306513]: the viability at 28.5 h, 10 µM was found to be 92.9%.

As for `O=C(CCc1nc2ccccc2s1)Nc1nc2ccccc2[nH]1` [CBK287988], the viability at 28.5 h, 10 µM stood at 114%.

On to `CC(C)(C)C(=O)N[C@H]1C[C@@H](Cc2cc(CO)on2)C1(C)C` [CBK289260], for which the viability at 28.5 h, 10 µM worked out at 92.1%.

As for `Cc1ccc(C(CC(=O)N2CCN(Cc3ccccc3)CC2)c2ccccc2)c(O)c1C` (stereo not shown) [CBK262214], the viability at 28.5 h, 10 µM came out at 100%.

Take `Cc1cccc(-c2ocnc2C(=O)NCCCn2ccnc2)c1` [CBK282418]: the viability at 28.5 h, 10 µM was determined as 80.1%.

On to `CCOC(=O)N1CCC(NC(=O)N2CCCCC2CO)CC1` (stereo not shown) [CBK155991], for which the viability at 28.5 h, 10 µM amounted to 106%.

Turning to `O=C(CN1C(=O)N2CCCN=C2c2ccccc21)N1CCCC1` [CBK284419], the viability at 28.5 h, 10 µM is 88.4%.

In the case of `COc1cc(C(=O)N2CCCC3(CCN(C(=O)Cc4c[nH]c5ccccc45)C3)C2)cc(OC)c1OC` (stereo not shown) [CBK131601], the viability at 28.5 h, 10 µM worked out at 96%.

Take `CN1CCN(CCC(=O)N/N=C/c2ccc3c(c2)OCO3)CC1` [CBK261498]: the viability at 28.5 h, 10 µM was 91.5%.

As to `COc1cccc(CCNCC(O)COc2ncnc3ccccc23)c1` (stereo not shown) [CBK028127T], the viability at 28.5 h, 10 µM worked out at 93.1%.

Consider `CC(Nc1ccc2[nH]c(=O)[nH]c2c1)C(=O)N1CCN(c2ccccc2)CC1` (stereo not shown) [CBK296748], for which the viability at 28.5 h, 10 µM was 99.4%.

In the case of `c1ccc(CCNc2nccnc2-c2ccncc2)nc1` [CBK037378], the viability at 28.5 h, 10 µM is 89.3%.

With `COc1cccc(C(=O)N2CCN(S(=O)(=O)c3ccc([N+](=O)[O-])cc3)CC2)c1` [CBK157533], the viability at 28.5 h, 10 µM was determined as 96.9%.

As to `CNC(=O)CN(C)Cc1c(C(=O)N2CCOCC2)nc2c(C)cccn12` [CBK307128], the viability at 28.5 h, 10 µM amounted to 114%.

For `Cc1csc(C(=O)N2CCCC(c3cc(O)cc(C)n3)C2)c1` (stereo not shown) [CBK283423], the viability at 28.5 h, 10 µM was found to be 89.5%.

As for `CCCCNc1cc(N2CCN(C(=O)COC)CC2)nc(N)n1` [CBK304078], the viability at 28.5 h, 10 µM is 98.8%.

Take `Cc1ccc(C(=O)C2=C(O)C(=O)N(CCCN(C)C)C2c2ccccn2)o1` (stereo not shown) [CBK269575]: the viability at 28.5 h, 10 µM was 89.1%.

Regarding `Cc1ccccc1Sc1cccc(C(F)(F)F)n1` [CBK115243], the viability at 28.5 h, 10 µM was 103%.

For the molecule `Cn1ncc2c1C(=O)NC1c3ccccc3C(=O)N21` (stereo not shown) [CBK113668], the viability at 28.5 h, 10 µM was 94.3%.

For `O=C(NCCCc1ccccc1)c1cccc(S(=O)(=O)N2CCCC2)c1` [CBK305024], the viability at 28.5 h, 10 µM stood at 96.1%.

Turning to `CCN(CC)C(=O)c1[nH]c2ccccc2c1NS(=O)(=O)c1ccc(F)cc1` [CBK050105], the viability at 28.5 h, 10 µM came to 94.1%.

Turning to `COc1ccccc1CCCN1CCC2(C1)c1[nH]c3ccccc3c1CCN2S(C)(=O)=O` (stereo not shown) [CBK074095], the viability at 28.5 h, 10 µM amounted to 113%.

Turning to `Cc1ccccc1/N=C1/NC(=O)/C(=C/c2ccc([N+](=O)[O-])o2)S1` [CBK094584], the viability at 28.5 h, 10 µM amounted to 96.6%.

For the molecule `CCNC(=O)Nc1ncc(-c2cc(OC)c(OC)c(OC)c2)c2cccnc12` [CBK070635], the viability at 28.5 h, 10 µM was 83.2%.

For the molecule `CN(C)C(=O)c1ccc(-c2ccc(COC3CCN(C(=O)c4cc5ccccc5o4)CC3)c(S(C)(=O)=O)c2)cc1` [CBK155965], the viability at 28.5 h, 10 µM was 94.6%.

For the molecule `Nc1ncc(-c2cccc(F)c2)nc1-c1ccc(C(=O)N2CCOCC2)cc1` [CBK064131], the viability at 28.5 h, 10 µM turned out to be 88.4%.

Regarding `Cc1c(Nc2nc3nonc3nc2Nc2cccc(Cl)c2)c(=O)n(-c2ccccc2)n1C` [CBK263073], the viability at 28.5 h, 10 µM was determined as 103%.

In the case of `CC(C)CCN(C)C(=O)c1cccc(S(=O)(=O)NCc2ccsc2)c1` [CBK307656], the viability at 28.5 h, 10 µM came out at 110%.

As to `CCCn1cc(NC(=O)NCc2cc3c(cc2OC)CCC3)nn1` [CBK306614], the viability at 28.5 h, 10 µM stood at 86.4%.

For `Cc1ccc(C(=O)N2CCC(CO)CC2)cc1C` [CBK083532], the viability at 28.5 h, 10 µM worked out at 93.8%.

On to `COc1ccc(OCCCN)c(C(=O)N2CCc3nc[nH]c(=O)c3C2)c1` [CBK307361], for which the viability at 28.5 h, 10 µM was 97.2%.

With `O=C1CCC(=O)N1CCOc1nccnc1N1CCN(CCc2c[nH]c3ccccc23)CC1` [CBK084304], the viability at 28.5 h, 10 µM stood at 95.5%.

Regarding `NCc1oc(-c2ccccc2)cc1C(=O)O` [CBK265941C], the viability at 28.5 h, 10 µM is 89.8%.

As to `COc1ccc(C[C@@H]2NC(=O)[C@H]3CN(C(=O)c4cccc(F)c4)CCN3C2=O)cc1` [CBK289604], the viability at 28.5 h, 10 µM stood at 88.8%.

For `N#Cc1c2c(c3nncn3c1Nc1ccccc1)CCCC2` [CBK288197], the viability at 28.5 h, 10 µM stood at 97.7%.

For the molecule `O=C(NCCO)/C(=C\c1ccccc1)NC(=O)c1ccc(I)cc1` [CBK265162], the viability at 28.5 h, 10 µM came out at 89.2%.

`CC(=O)[C@H]1C[C@@H](CC(=O)NCc2csc(-c3ccccc3)n2)C1(C)C` [CBK092335]: the viability at 28.5 h, 10 µM was determined as 109%.

`COc1cc(NC(=O)c2ccccc2)c(C(=O)O)cc1OC` [CBK227754]: the viability at 28.5 h, 10 µM was found to be 89.9%.

Turning to `O=C1NC2(CCCCC2)C(=O)N1Cc1cnn(-c2ccccc2)n1` [CBK305570], the viability at 28.5 h, 10 µM worked out at 97.8%.

For the molecule `CCc1ccc2c(c1)C(CCNC(=O)c1sccc1C)C(=O)N2` (stereo not shown) [CBK306459], the viability at 28.5 h, 10 µM is 88.5%.

As to `CN1CCN(C(=O)c2cc(-c3ccc(C(=O)N4CCOCC4)cc3)cnc2N)CC1` [CBK158584], the viability at 28.5 h, 10 µM was 85.6%.

For the molecule `O=C(O)c1cnc(NCC2CCCCCC2)[nH]c1=O` [CBK023792], the viability at 28.5 h, 10 µM was determined as 88.8%.

Turning to `CC(C(=O)N1CCC2(CC1)NC(=O)c1ccccc1N2)(c1ccccc1)c1ccccc1` [CBK286308], the viability at 28.5 h, 10 µM was 108%.

Consider `Cc1cc2nnc(SCC(=O)Nc3ccc4c(c3)OCO4)n2c2ccccc12` [CBK265926], for which the viability at 28.5 h, 10 µM was found to be 82.8%.

Consider `CC(C)Nc1nc2cc(Cl)c(Cl)cc2nc1OCCN(C)C` [CBK113419], for which the viability at 28.5 h, 10 µM was found to be 103%.

As for `O=C(O)CSc1nc2ccccc2n1Cc1ccccc1` [CBK262411], the viability at 28.5 h, 10 µM stood at 94.2%.

Regarding `O=C(COc1ccccc1)Nc1cccc(N2CCNCC2)c1` [CBK028271T], the viability at 28.5 h, 10 µM is 100%.

In the case of `COc1cc(OCc2ccccc2)ccc1CN1CCN(Cc2ccc3c(c2)OCO3)CC1` [CBK074768], the viability at 28.5 h, 10 µM came out at 97.9%.

For the molecule `O=C(c1c(F)cc(-c2cncc(-c3ccc(O)cc3)n2)cc1F)N1CCOCC1` [CBK131973], the viability at 28.5 h, 10 µM was determined as 90.5%.

With `O=C(Nc1cccc(Cl)c1Cl)N1CCC(n2c(=O)[nH]c3ccccc32)CC1` [CBK149856], the viability at 28.5 h, 10 µM was 94.6%.

On to `O=C(OCCc1ccncc1)N1CCCC(F)(F)C1` [CBK200157], for which the viability at 28.5 h, 10 µM came to 92.2%.

For `O=C(O)CSc1ccc(Oc2ccc(SCC(=O)O)cc2)cc1` [CBK261254], the viability at 28.5 h, 10 µM turned out to be 92.6%.

As to `CC(C)NC(=O)[C@H]1CN2CCC1C[C@@H]2Cn1cc(C2(O)CCCC2)nn1` (stereo partly shown) [CBK289090], the viability at 28.5 h, 10 µM was 103%.

In the case of `CNCCc1nc(-c2cccs2)c2ccccn12` [CBK035905], the viability at 28.5 h, 10 µM was 94.5%.

Turning to `CN(C)CCN(C)c1cncc(-c2ccc(Cl)cc2)n1` [CBK065724], the viability at 28.5 h, 10 µM came to 93%.

Turning to `O=C(CN(c1ccccc1)S(=O)(=O)c1ccccc1)N1CCN(Cc2ccc3c(c2)OCO3)CC1` [CBK265290], the viability at 28.5 h, 10 µM was 90%.

For `O=C(CCN1CCCC1Cn1cncn1)NCCc1ccccc1` (stereo not shown) [CBK305677], the viability at 28.5 h, 10 µM is 92.9%.

As for `Cc1nc2c(c(=O)[nH]1)CC[C@@H]1CN(C(=O)c3ccccc3F)C[C@H]21` [CBK284410], the viability at 28.5 h, 10 µM turned out to be 92.7%.

The same data set, now with this note: human, hela cells, % viability, bulk resorufin, single well.
For the molecule `O=C1NC(=S)N(c2ccccc2F)C(=O)/C1=C/NCc1ccco1` [CBK265126], the viability at 28.5 h, 10 µM came to 86.6%.

As for `O=C(O)c1cccc(NC(=O)c2cc([N+](=O)[O-])cc([N+](=O)[O-])c2)c1` [CBK261555], the viability at 28.5 h, 10 µM was found to be 92.8%.

For the molecule `O=C1NC(=O)C(CCc2ccncc2)(c2ccccc2)C(=O)N1` [CBK288431], the viability at 28.5 h, 10 µM worked out at 96.9%.
